Laboratory results from patent US11400058B2, “Intravenous formulations of coenzyme Q10 (CoQ10) and methods of use thereof” (Berg LLC, priority 2010, dated 2022).

Columns and labels:
[1] = system: lung clone of a malignant chloroma; assay: Effect on lung tumors: lung clone of malignant chloroma in rats, alone and with cyclophosphamide; format: in vivo, Fischer 344 rats; details: Group III, cyclophosphamide 35 mg/kg IP once
Procedure: Twenty-four Fischer 344 rats were injected intraperitoneally with the lung clone of a malignant chloroma. The rats were then randomized into groups of 6 rats each. Group 1 served as a control, treated with 0.5 mL of phosphate buffered saline (PBS) on Monday, Wednesday and Friday for three (3) weeks. […] The formulation was administered by IP injection in a volume of 0.5 mL on Monday, Wednesday, and Friday for three (3) weeks. Group III received 35 mg/kg cyclophosphamide by IP injection once.

[2] = system: liver clone of a malignant chloroma; assay: Effect on liver cancer: liver clone of malignant chloroma in rats, alone and with cyclophosphamide; format: in vivo, Fischer 344 rats; details: Group III, cyclophosphamide 35 mg/kg once
Procedure: Effect of CoQ10 IV Formulation on Liver Cancer: The ability of a Coenzyme Q10 formulation of the present invention to inhibit proliferation of liver tumor cells was examined in an animal model. Twenty-four Fischer 344 rats were injected intraperitoneally with the liver clone of a malignant chloroma Rats were then randomized into groups of 6 rats each. Group 1 served as a control, treated with 0.5 mL of phosphate buffered saline on Monday, Wednesday and Friday for three (3) weeks. Group II received a sterile nanodispersion by IP injection of 20 mg of Coenzyme Q10. […] The formulation was administered by IP injection in a volume of 0.5 mL on Monday, Wednesday and Friday for three (3) weeks. Group III received 35 mg/kg of cyclophosphamide once. Group IV received 20 mg of the 4:3:1.5 CoQ10 formulation in 0.5 mL on Monday, Wednesday and Friday for three (3) weeks. In addition, they received 35 mg/kg of cyclophosphamide once.

MiaPACA2 = MiaPACA2 pancreatic carcinoma cells injected in the pancreas of NSG mice, survival; format: in vivo; details: doxorubicin group
Procedure: Effect of CoQ10 IV Formulation on Pancreatic Carcinoma Cell Line: MiaPACA2, a pancreatic cell line was employed on NSG mice. Mice were anesthetized in a sterile environment where they had been housed. Once animals reached surgical-plane anesthesia, mice were laid down, and the abdominal area was palpated. The pancreas was located behind the stomach, between the spleen, and the stomach, both of which are palpable organs. Thereafter, […] were injected in the pancreas by gently manipulating the animal to reach the area behind the stomach. All of these procedures were performed under sterile conditions in a biosafety cabinet, and the animals were housed under strict sterile conditions as well to avoid opportunistic infections. After injection of cells, animals were closely monitored daily. Animals were then randomized into 8 groups receiving a different dose of the CoQ10 N formulation. […] The formulation was administered intravenously via tail veins with dosing every other day three times per week for up to 28 days. The summary of results are depicted in the following graphs (FIGS. 49-56).

[3] = Combination therapy with doxorubicin, survival of rodents; format: in vivo; details: administered intraperitoneally, by itself, in rodents
Procedure: Combination Therapy With CoQ10 IV Formulation and Chemotherapy Adjuvant Doxorubicin, a powerful chemotherapeutic, is lethal when administered intraperitoneally, by itself, in rodents. CoQ10 IV Formulation was administered in combination with doxorubicin.

SMILES	4 rats survived up to day [1]	rats remained disease-free [1]	rats remained disease-free [2]	the other three rats survived up to day [2]	survivors at 60 days (MiaPACA2)	lethality [3]
O=P1(N(CCCl)CCCl)NCCCO1 (stereo not drawn) [chemotherapy, cyclophosphamide]	35 days	1 rat	1 rat	34 days	–	–
COc1cccc2c1C(=O)c1c(O)c3c(c(O)c1C2=O)C[C@@](O)(C(=O)CO)C[C@@H]3O[C@H]1C[C@H](N)[C@H](O)[C@H](C)O1 [doxorubicin]	–	–	–	–	0 of 30	lethal
